Data: patent US20140045824A1, “METHOD FOR PRODUCING COMPLEX CRYSTAL AND METHOD FOR SCREENING COMPLEX CRYSTAL” (priority 2011, published 2014)

Key:
Assay type in all cases: physicochemical
[1] = Cocrystal screening by heat melting 1-menthol (Example 2), powder X-ray diffraction and thermal analysis; set-up: key: A cocrystal was completely formed.; B: A mixture of a cocrystal and the host compound or guest compound was formed.; C: A cocrystal was not formed (a mixture of the host compound and the guest compound was formed); conditions: host carbamazepine, equimolar guest, 1-menthol added, 10 hours at 80° C.
Procedure: Carbamazepine and a guest compound shown in Table 4 in an equimolar amount to carbamazepine were weighed and mixed using an agate mortar. […] Thereafter, the obtained mixed powder of carbamazepine, the guest compound, and 1-menthol was heated for 10 hours in an oven at 80° C., and the obtained solids were subjected to powder X-ray diffraction measurement and thermal analysis.

[2] = Cocrystal screening by slurry method (Comparative Examples 4-1 to 4-6), powder X-ray diffraction; set-up: key: A cocrystal was completely formed.; B: A mixture of a cocrystal and the host compound or guest compound was formed.; C: A cocrystal was not formed (a mixture of the host compound and the guest compound was formed); conditions: host carbamazepine; for Cocrystal formation, Comparative Example 4-6: slurry in acetone; for Cocrystal formation, Comparative Example 4-6 / Cocrystal formation, Comparative Example 4-2 / Cocrystal formation, Comparative Example 4-5 / Cocrystal formation, Comparative Example 4-3 / Cocrystal formation, Comparative Example 4-4 / Cocrystal formation, Comparative Example 4-1: room temperature 7 days; for Cocrystal formation, Comparative Example 4-2: slurry in ethanol; for Cocrystal formation, Comparative Example 4-5: slurry in ethyl acetate; for Cocrystal formation, Comparative Example 4-3: slurry in tetrahydrofuran; for Cocrystal formation, Comparative Example 4-4: slurry in toluene; for Cocrystal formation, Comparative Example 4-1: slurry in water; for Cocrystal formation, Comparative Example 4*: slurry summary: A if a cocrystal was formed in any one of Comparative Examples 4-1 to 4-6
Procedure: (§1) 3 mg (0.0127 mmoles) of carbamazepine and a guest compound shown in Table 4 in an equimolar amount (0.0127 mmoles) to carbamazepine were weighed and put into a glass container, to which was then added 60 μL of water. These were shaken at room temperature for 7 days, and the obtained residues were subjected to powder X-ray diffraction measurement. 3 mg (0.0127 mmoles) of carbamazepine and a guest compound shown in Table 4 in an equimolar amount (0.0127 mmoles) to carbamazepine were weighed and put into a glass container, to which was then added 60 μL of ethanol. These were shaken at room temperature for 7 days, and the obtained residues were subjected to powder X-ray diffraction measurement. 3 mg (0.0127 mmoles) of carbamazepine and a guest compound shown in Table 4 in an equimolar amount (0.0127 mmoles) to carbamazepine were weighed and put into a glass container, to which was then added 60 μL of tetrahydrofuran. These were shaken at room temperature for 7 days, and the obtained residues were subjected to powder X-ray diffraction measurement. 3 mg (0.0127 mmoles) of carbamazepine and a guest compound shown in Table 4 in an equimolar amount (0.0127 mmoles) to carbamazepine were weighed and put into a glass container, to which was then added 60 μL of toluene. These were shaken at room temperature for 7 days, and the obtained residues were subjected to powder X-ray diffraction measurement. 3 mg (0.0127 mmoles) of carbamazepine and a guest compound shown in Table 4 in an equimolar amount (0.0127 mmoles) to carbamazepine were weighed and put into a glass container, to which was then added 60 μL of ethyl acetate. These were shaken at room temperature for 7 days, and the obtained residues were subjected to powder X-ray diffraction measurement. 3 mg (0.0127 mmoles) of carbamazepine and a guest compound shown in Table 4 in an equimolar amount (0.0127 mmoles) to carbamazepine were weighed and put into a glass container, to which was then added 60 μL of acetone. These were shaken at room temperature for 7 days, and the obtained residues were subjected to powder X-ray diffraction measurement.

[3] = as above; set-up: key: A cocrystal was completely formed.; B: A mixture of a cocrystal and the host compound or guest compound was formed.; C: A cocrystal was not formed (a mixture of the host compound and the guest compound was formed).; —: A residue was not obtained; conditions: host carbamazepine, room temperature 7 days; for Cocrystal formation, Comparative Example 4-3: slurry in tetrahydrofuran
Procedure: as §1

[4] = Cocrystal formation with 1-menthol under humidified condition (Example 3); set-up: key: A cocrystal was completely formed.; B: A mixture of a cocrystal and the host compound or guest compound was formed.; C: A cocrystal was not formed (a mixture of the host compound and the guest compound was formed); conditions: host theophylline, 1-menthol added, 80° C. and 90% RH
Procedure: About 30 mg (0.167 mmoles) of theophylline and about 29 mg (0.167 mmoles) of L(+)-arginine were weighed and mixed using an agate mortar. […] 15 mg of this mixed powder was weighed and put into a test tube, to which was then added 15 mg of 1-menthol which had been grinded using an agate mortar, followed by vigorously stirring for one minute using a vortex mixer. Thereafter, the obtained mixture of theophylline, L(+)-arginine, and 1-menthol was heated for 6 and 21 hours, respectively in a thermo-hygrostat at 80° C. and 90% RH, and the obtained solids were subjected to powder X-ray diffraction measurement and thermal analysis.

[5] = Cocrystal formation by heating under humidified condition without menthol (Comparative Example 7); set-up: key: A cocrystal was completely formed.; B: A mixture of a cocrystal and the host compound or guest compound was formed.; C: A cocrystal was not formed (a mixture of the host compound and the guest compound was formed); conditions: host theophylline, no menthol, 80° C. and 90% RH
Procedure: About 30 mg (0.167 mmoles) of theophylline and […] of L(+)-arginine were weighed and put into a test tube and mixed using an agate mortar. […] 15 mg of this mixed powder was weighed and put into a test tube and heated for 6 and 21 hours, respectively in a thermo-hygrostat at 80° C. and 90% RH, and the obtained solids were subjected to powder X-ray diffraction measurement and thermal analysis.

SMILES	Cocrystal formation, Example 2 [1]	Cocrystal formation, Comparative Example 4-6 [2]	Cocrystal formation, Comparative Example 4-2 [2]	Cocrystal formation, Comparative Example 4-5 [2]	Cocrystal formation, Comparative Example 4-3 [2]	Cocrystal formation, Comparative Example 4-4 [2]	Cocrystal formation, Comparative Example 4-1 [2]	Cocrystal formation, Comparative Example 4* [2]	Cocrystal formation, Comparative Example 4-3 [3]	Cocrystal formation, Comparative Example 4-5 ([3]; slurry in ethyl acetate)	Cocrystal formation, Example 3, Heating for 6 hours ([4]; 6 hours)	Cocrystal formation, Example 3, Heating for 21 hours ([4]; 21 hours)	Cocrystal formation, Comparative Example 7, Heating for 6 hours ([5]; 6 hours)	Cocrystal formation, Comparative Example 7, Heating for 21 hours ([5]; 21 hours)
O=C(O)c1ccccc1 [Benzoic acid]	A	C	C	C		C	C	C	—					
O=C(O)CCCC(=O)O [Glutaric acid]	A	C	C	C		C	C	C	—					
CC(C)C[C@H](N)C(=O)O [L-Leucine]	C	C	C	C		C	C	C	—					
NC(=O)c1cccnc1 [Nicotinamide]	A	B	A	A	A	A	C	A						
N=C(N)NCCC[C@H](N)C(=O)O [L(+)-Arginine]	C	C	C	C		C	C	C	—		A	A	A	A
O=C(O)CC(O)(CC(=O)O)C(=O)O [Citric acid]	B	C	C			C	C	C	—	—				

Second part, led by results:

Cocrystal formation, Example 2 [1]	Cocrystal formation, Comparative Example 4-6 [2]	Cocrystal formation, Comparative Example 4-2 [2]	Cocrystal formation, Comparative Example 4-5 [2]	Cocrystal formation, Comparative Example 4-3 [2]	Cocrystal formation, Comparative Example 4-4 [2]	Cocrystal formation, Comparative Example 4-1 [2]	Cocrystal formation, Comparative Example 4* [2]	Cocrystal formation, Comparative Example 4-3 [3]	Cocrystal formation, Comparative Example 4-5 ([3]; slurry in ethyl acetate)	SMILES	Cocrystal formation, Example 3, Heating for 6 hours ([4]; 6 hours)	Cocrystal formation, Example 3, Heating for 21 hours ([4]; 21 hours)	Cocrystal formation, Comparative Example 7, Heating for 6 hours ([5]; 6 hours)	Cocrystal formation, Comparative Example 7, Heating for 21 hours ([5]; 21 hours)
A	C	A	A	A	A	A	A			O=C(O)/C=C\C(=O)O [Maleic acid]				
A	C	C	A		B	C	A	—		O=C(O)C(=O)O [Oxalic acid]				
C	C	C	C		C	C	C	—		NCC(=O)O [Glycine]				
A	C	A	A	A	A	B	A			NC(=O)c1ccccc1 [Benzamide]				
A	C	C	C		C	C	C	—		C/C=C/C=C/C(=O)O [Sorbic acid]				
A	B	A	A		A	C	A	—		O=C1NS(=O)(=O)c2ccccc21 [Saccharin]				
A	A	A	A	A	A	C	A			O=S(=O)(O)CCS(=O)(=O)O [Ethanedisulfonic acid]				
